Results reported in patent publication US20100063048A1, “Remedy for angiospasm accompanying subarachnoid hemorrhage containing thrombin receptor antagonist as the active ingredient” (Eisai R&D Mangement Co., Ltd., priority 2004, published 2010).
Entries after “also recorded” stand apart in the source; their conditions may differ. Each block holds one molecule with its values, some of them ahead of it.

How the values were obtained:
thrombin = conditions: administration to a subarachnoid hemorrhage animal model; cited from earlier work
[1] = test system: α toxin-skinned basilar arteries; assay: Contractile responses of α toxin-skinned basilar arteries to thrombin and PAR1-AP; set-up: species or system rabbit
Experimental: Alpha toxin is a substance that confers permeability to cell membrane. In a rabbit basilar artery that is treated with α toxin for permeabilization (hereinafter, also referred to as an “a toxin-skinned basilar artery”), contractile response associated with increase in calcium ion concentration and contractile response to GTPγS that activates G protein were measured.
Next, contractile responses of a toxin-skinned basilar arteries to thrombin and PAR1-AP were measured.

rabbit basilar arteries [2] = assay: Contractile responses of endothelium-removed rabbit basilar artery ring preparations to thrombin / PAR1-AP
Experimental: (§1) First, 2.5 ml each of autologous arterial blood was injected into the cisterna magnas twice on Days 0 and 2. Hereinafter, this group is also referred to herein as the “SAH group”. Models injected with equal amounts of saline instead of autologous arterial blood constituted the control group. On Day 7, rabbits from each group were euthanized and endotheliums were removed from the dissected basilar arteries to produce ring preparations (500 μm in width) (FIG. 2). The endothelium-removed basilar artery ring preparations produced in this example were used to perform experiments on contractile response in the following examples.
(§2) Contractile responses to thrombin were determined for the rabbit basilar arteries from the control group and the SAH group. Following contractile response induced by 118 mM K+ depolarization stimulation, the basilar artery ring preparations were stimulated with thrombin. Thrombin is an endogenous ligand of PAR1.
Same experiment as Example 3 was performed using PAR1-AP (PAR1-activating peptide) instead of thrombin.

rabbit basilar arteries [3] = assay: Effect of heparinized autologous blood on increased contractile response in SAH group; type: in vivo; conditions: models injected twice with heparinized autologous blood (SAH+heparin)
Experimental: as §1
In order to find out the effect of heparin on this increase in the contractile response, an experiment was conducted according to the method of Example 1 using models that had been injected twice with heparinized autologous blood. Heparin forms a complex with anti-thrombin III and becomes an anticoagulant that inactivates blood coagulation factor.

PAR1 = target: T1, PAR1 (Oryctolagus cuniculus, UniProt G1TTP8); assay: Effect of PAR1 antagonist on contractile response of rabbit basilar arteries to thrombin (rabbit double-hemorrhage SAH model); type: in vivo
T1 construct: from tissue; host or cells: rabbit basilar artery (E5555 co-injected with autologous blood into the cistern; artery rings tested ex vivo)
T1 sequence (G1TTP8 1-460): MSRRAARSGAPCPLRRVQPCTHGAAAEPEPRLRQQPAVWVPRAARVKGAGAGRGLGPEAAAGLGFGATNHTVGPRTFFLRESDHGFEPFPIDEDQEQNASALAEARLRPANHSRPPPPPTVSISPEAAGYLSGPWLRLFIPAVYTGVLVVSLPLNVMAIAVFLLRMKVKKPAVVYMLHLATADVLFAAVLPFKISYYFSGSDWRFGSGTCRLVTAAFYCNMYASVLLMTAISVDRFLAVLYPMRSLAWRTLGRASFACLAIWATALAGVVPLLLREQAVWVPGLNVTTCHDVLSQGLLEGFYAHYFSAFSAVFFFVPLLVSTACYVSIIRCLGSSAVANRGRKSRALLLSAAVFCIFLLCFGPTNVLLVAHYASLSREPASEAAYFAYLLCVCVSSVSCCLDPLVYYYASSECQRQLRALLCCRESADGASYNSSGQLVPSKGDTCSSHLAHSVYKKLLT
Experimental: as §1, §2
Contractile responses of the rabbit basilar arteries to thrombin were determined for the control group (sham surgery group), the SAH group and the SAH group coexisting with the PAR1 antagonist. Stimulation was given in the same manner as in Example 3.
In this example, the “sham surgery group (sham)” (control rabbit) refers to those obtained by injecting 3 ml saline twice into rabbit cisterns on Days 0 and 2, the “SAH group”(subarachnoid hemorrhage model) refers to those obtained by injecting 3 ml autologous blood twice into rabbit cisterns on Days 0 and 2, and the “SAH+E5555 group” (E5555-administered subarachnoid hemorrhage model) refers to those obtained by injecting 3 ml autologous blood supplemented with 600 μg E5555 twice into rabbit cisterns on Days 0 and 2.
On Day 7, the basilar arteries were removed to assess contractile responses to 118 mM K+ and 1 unit/ml thrombin.
In the same manner as Example 10, contractile responses of the rabbit basilar arteries to thrombin were determined for the control group (the sham surgery group), the SAH group and the SAH group coexisting with the PAR1 antagonist.
In this example, 3 ml each of autologous blood supplemented with 60 ng, 600 ng, 6 μg or 60 μg of E5555 was injected twice into rabbit cistern on Days 0 and 2.

Molecule: anti-thrombin III
angiospasm (thrombin): suppress angiospasm

Molecule: thrombin
effect on contractile response induced by calcium ion ([1]; SAH group): significantly increased | effect on contractile response induced by calcium ion ([1]; control group): had no effect | concentration from which significant continuous contraction is induced (rabbit basilar arteries [2]; SAH group): ≥ 0.3 units/ml | reversibility of contractile response on washing (rabbit basilar arteries [2]; SAH group, Day 7, 1 unit/ml thrombin or 100 μM PAR1-AP): not changed by washing | contractile force (% of 118 mM K+-induced contraction) (rabbit basilar arteries [2]; SAH group, thrombin 1 unit/ml): 73.1±2.8% | contraction (rabbit basilar arteries [2]; control group, thrombin 1 unit/ml): did not induce contraction | contractile force (% of 118 mM K+-induced contraction) (rabbit basilar arteries [2]; control group, thrombin 10 units/ml, mild temporary contraction): 21.3±1.2%

Molecule: heparin
increasement in the contractile response to PAR1-AP (rabbit basilar arteries [3]): decreased significantly | contractile response to thrombin (rabbit basilar arteries [3]; thrombin 1 unit/nil): 41.6±3.0%

contractile response of basilar arteries to 1 unit/ml thrombin (PAR1; SAH+E5555 (6 μg) group: autologous blood supplemented with 6 μg injected twice on Days 0 and 2, vs SAH group): smaller than that for the SAH group | contractile response of basilar arteries to 1 unit/ml thrombin (PAR1; SAH+E5555 (6 μg) group: autologous blood supplemented with 6 μg injected twice on Days 0 and 2, vs SAH group, listed as E5050): significantly suppressed | contractile response of basilar arteries to 1 unit/ml thrombin (PAR1; SAH+E5555 (60 μg) group: autologous blood supplemented with 60 μg injected twice on Days 0 and 2, vs SAH group): significantly suppressed | dose of E5555 suppressing increased reactivity to thrombin caused by subarachnoid hemorrhage (dose-dependent) (PAR1; co-administration with autologous blood, 60 ng to 60 μg tested, 1 unit/ml thrombin): ≥ 60 ng
Molecule: CCOc1cc2c(c(F)c1OCC)C(=N)N(CC(=O)c1cc(N3CCOCC3)c(OC)c(C(C)(C)C)c1)C2 [Formula E5555]
contractile response of basilar arteries to 1 unit/ml thrombin (PAR1; SAH+E5555 group: 3 ml autologous blood supplemented with 600 μg E5555 injected twice into cisterns on Days 0 and 2, arteries removed Day 7, n=3): contraction by 1 unit/ml thrombin was small; also recorded: significantly suppressed the increased reactivity to thrombin

Molecule: N=C(N)c1ccc2cc(OC(=O)c3ccc(N=C(N)N)cc3)ccc2c1 [FUT-175]
angiospasm (thrombin): suppress angiospasm
